Assay results published in patent US20140288077A1, “SUBSTITUTED 4-PHENOXYPHENOL ANALOGS AS MODULATORS OF PROLIFERATING CELL NUCLEAR ANTIGEN ACTIVITY” (ST. JUDE CHILDREN'S RESEARCH HOSPITAL, priority 2011, published 2014).
Read-outs that look alike come from different tables or passages of the source. No end group written: not given here.

Target: T1, human PCNA recombinant protein (Homo sapiens, UniProt P12004)
T1 construct: The full length human PCNA; made in house; host or cells: Escherichia coli BL21(DE3)
T1 sequence (P12004 whole entry): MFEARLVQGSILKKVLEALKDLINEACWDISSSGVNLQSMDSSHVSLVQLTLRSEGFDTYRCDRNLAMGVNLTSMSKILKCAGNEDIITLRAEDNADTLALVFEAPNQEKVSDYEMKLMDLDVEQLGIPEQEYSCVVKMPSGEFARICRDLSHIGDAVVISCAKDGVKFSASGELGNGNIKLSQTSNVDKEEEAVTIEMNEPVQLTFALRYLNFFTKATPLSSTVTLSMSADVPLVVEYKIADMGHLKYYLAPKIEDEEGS
Assay: Fluorescent polarization assay: competition with 5-FAM-labeled PL peptide for PCNA
Format: binding
Text: To determine the binding of the disclosed compounds to the human PCNA recombinant protein, a fluorescence polarization assay was employed. The assay is based on competition between a fluorescent tracer and increasing amounts of competing compound, i.e. a disclosed compound, determined as fluorescence polarization intensity (mP). The fluorescent tracer was 5-carboxyfluorescein (5-FAM) labeled PL peptide (“FAM-PL”). […] PCNA was a recombinant protein purified using standard methods known to one skilled in the art using an expression construct obtained from Dr. Toshiki Tsurimoto, Kyusyu University, Japan.
The volumes of PCNA and FAM-PL were adjusted to ensure that the final concentration of PCNA was 200 nM and FAM-PL was 10 nM. Assays were carried out in 384 well plates in a total volume of about 20-30 μL. […] Fluorescence measurements were made immediately after dilution in the assay plate. […] FP values (P) were calculated in millipolarization units (mP),
where I∥ and I⊥ are the emission intensities recorded, respectively, in the parallel and perpendicular directions relative to the plane of excitation polarization, after background intensity correction. G-factor values (G) for the fluorescein spectral window were measured using 1 nM fluorescein.
Alternatively, the fluorescent polarization assay can be carried out as described in the following. […] Briefly, 20 μl of the assay solution was transferred into each well of a black 384-well plate using Wellmate (Matrix). […] The negative control in each plate was DMSO, whereas the positive control was unlabeled PL-peptide as a self-competitor. […] FP values were calculated in millipolarization units. All data processing was performed using in-house programs in the Pipeline Pilot (Accelrys, version 7.0.1). The quality of the primary screen was assessed by Z-prime and other screening quality metrics.

[1] = Table 2, inhibition of FAM-PL peptide binding to PCNA, read-out: IC50

COCCCNC(=O)CCc1cc(I)c(Oc2ccc(O)cc2)c(I)c1 [MLAE-054-4, 3-(4-(4-Hydroxyphenoxy)-3,5-diiodophenyl)-N-(3-methoxypropyl)propanamide]
IC50 [1]: 5.2 µM

Cc1cc(CCC(=O)O)cc(C)c1Oc1ccc(O)cc1 [NF021111, 3-(4-(4-hydroxyphenoxy)-3,5-dimethylphenyl)propanoic acid]
IC50 [1]: > 50 µM

COc1ccc(Oc2c(I)cc(CC(=O)N3CCNC(=O)C3)cc2I)cc1 [MLAE-045, 4-(2-(3,5-Diiodo-4-(4-methoxyphenoxy)phenyl)acetyl)piperazin-2-one]
IC50 [1]: 2.1 µM

CS(=O)(=O)NC(=O)CCc1cc(I)c(Oc2ccc(O)c(C(=O)NCc3ccccc3)c2)c(I)c1 [MLAF-013, N-Benzyl-5-(2,6-diiodo-4-(3-(methylsulfonamido)-3-oxopropyl)phenoxy)-2-hydroxybenzamide]
IC50 [1]: 1.4 µM

COc1ccc(NC(=O)Cc2cc(I)c(Oc3ccc(O)c(I)c3)c(I)c2)cc1 [MLAE-029-7, 2-(4-(4-Hydroxy-3-iodophenoxy)-3,5-diiodophenyl)-N-(4-methoxyphenyl)acetamide]
IC50 [1]: > 50 µM

O=C(O)CCc1ccc(I)c(Oc2ccc(O)cc2)c1I [MLAF-050, 3-(3-(4-Hydroxyphenoxy)-2,4-diiodophenyl)propanoic acid]
IC50 [1]: 19 µM

COc1ccc(S(=O)(=O)N[C@H](CO)Cc2cc(I)c(Oc3ccc(O)cc3)c(I)c2)cc1 [MLAE-058-3, (S)—N-(1-Hydroxy-3-(4-(4-hydroxyphenoxy)-3,5-diiodophenyl)propan-2-yl)-4-methoxybenzenesulfonamide]
IC50 [1]: 9.7 µM

CCCCCNC(=O)Cc1cc(I)c(Oc2ccc(O)c(I)c2)c(I)c1 [MLAE-029-9, 2-(4-(4-Hydroxy-3-iodophenoxy)-3,5-diiodophenyl)-N-pentylacetamide]
IC50 [1]: > 50 µM

Cc1cc(Oc2c(I)cc(C[C@H](N)CO)cc2I)ccc1O [MLAG-093, (S)-4-(4-(2-amino-3-hydroxypropyl)-2,6-diiodophenoxy)-2-methylphenol]
IC50 [1]: 1.8 µM

Cc1noc(C)c1S(=O)(=O)N[C@H](CO)Cc1cc(I)c(Oc2ccc(O)cc2)c(I)c1 [MLAE-061, (S)—N-(1-Hydroxy-3-(4-(4-hydroxyphenoxy)-3,5-diiodophenyl)propan-2-yl)-3,5-dimethylisoxazole-4-sulfonamide]
IC50 [1]: 16 µM

Oc1ccc(Oc2c(I)cc(C[C@H]3C[NH2+][Pt-2]([Cl])([Cl])[NH2+]3)cc2I)cc1 [dichloro((S)-4-(4-(2,3-diaminopropyl)-2,6-diiodophenoxy)phenol)platinum(II)]
IC50 (incubation time 5 min (FIGS. 15-18), read-out: IC50 in fluorescent polarization assay): ~0.27 µM

CNC(=O)CCc1cc(I)c(Oc2ccc(OC)cc2)c(I)c1 [MLAE-040, 3-(3,5-Diiodo-4-(4-methoxyphenoxy)phenyl)-N-methylpropanamide]
IC50 [1]: 17 µM

NCCc1cc(I)c(Oc2ccc(O)cc2)c(I)c1 [MLAG-087, 4-(4-(2-aminoethyl)-2,6-diiodophenoxy)phenol]
IC50: 0.9 µM

O=C1CN(C(=O)CCc2cc(I)c(Oc3ccc(O)cc3)c(I)c2)CCN1 [MLAE-034, 4-(3-(4-(4-hydroxyphenoxy)-3,5-diiodophenyl)propanoyl)piperazin-2-one]
IC50 [1]: > 50 µM

N[C@H](CO)Cc1cc(I)c(Oc2ccc(O)c(I)c2)c(I)c1 [MLAG-083, (S)-4-(4-(2-amino-3-hydroxypropyl)-2,6-diiodophenoxy)-2-iodophenol]
IC50 [1]: 0.6 µM

COc1ccc(Oc2c(I)cc(CCC(=O)N3CCCCC3)cc2I)cc1 [MLAE-039, 3-(3,5-Diiodo-4-(4-methoxyphenoxy)phenyl)-1-(piperidin-1-yl)propan-1-one]
IC50 [1]: 9.5 µM

CCS(=O)(=O)N1CCN(C(=O)CCc2cc(I)c(Oc3ccc(O)cc3)c(I)c2)CC1 [MLAE-051-3, 1-(4-(Ethylsulfonyl)piperazin-1-Yl)-3-(4-(4-hydroxyphenoxy)-3,5-diiodophenyl)propan-1-one]
IC50 [1]: 2.7 µM

N[C@H](CNC(=O)CO)Cc1cc(I)c(Oc2ccc(O)cc2)c(I)c1 [MLAF-083, (S)—N-(2-amino-3-(4-(4-hydroxyphenoxy)-3,5-diiodophenyl)propyl)-2-hydroxyacetamide]
IC50 [1]: 1.4 µM

CN(C)C(=O)Cc1cc(I)c(Oc2ccc(O)cc2)c(I)c1 [MLAG-066-2, 2-(4-(4-hydroxyphenoxy)-3,5-diiodophenyl)-N,N-dimethylacetamide]
IC50 [1]: 7.5 µM

N[C@H](CNC(=O)NCc1ccccc1)Cc1cc(I)c(Oc2ccc(O)cc2)c(I)c1 [MLAF-085, (S)-1-(2-amino-3-(4-(4-hydroxyphenoxy)-3,5-diiodophenyl)propyl)-3-benzylurea]
IC50 [1]: 1 µM

O=C(Cc1cc(I)c(Oc2ccc(O)c(I)c2)c(I)c1)NCc1ccccc1 [MLAE-029-4, N-Benzyl-2-(4-(4-hydroxy-3-iodophenoxy)-3,5-diiodophenyl)acetamide]
IC50 [1]: > 50 µM

CS(=O)(=O)NC(=O)Cc1cc(I)c(Oc2ccc(O)cc2)c(I)c1 [MLAE-049, 2-(4-(4-Hydroxyphenoxy)-3,5-diiodophenyl)-N-(methylsulfonyl)acetamide]
IC50 [1]: 9.1 µM

O=S(=O)(N[C@H](CO)Cc1cc(I)c(Oc2ccc(O)cc2)c(I)c1)c1ccccc1 [MLAE-058-2, (S)—N-(1-Hydroxy-3-(4-(4-hydroxyphenoxy)-3,5-diiodophenyl)propan-2-yl)benzenesulfonamide]
IC50 [1]: 6 µM

CCCOCCNC(=O)CCc1cc(I)c(Oc2ccc(O)cc2)c(I)c1 [MLAE-054-3, 3-(4-(4-Hydroxyphenoxy)-3,5-diiodophenyl)-N-(2-propoxyethyl)propanamide]
IC50 [1]: 8.3 µM

NC(=O)Cc1cc(I)c(Oc2ccc(O)c(I)c2)c(I)c1 [MLAG-088, 2-(4-(4-Hydroxy-3-Iodophenoxy)-3,5-diiodophenyl)acetamide]
IC50 [1]: 6.6 µM

SAVLQKKITDYFHPKK [PL peptide, reference compound]
IC50 (unlabeled PL-peptide against tagged PL-peptide, data not shown, read-out: IC50 in self-competition): ~0.1 µM

O=C(CCc1cc(I)c(Oc2ccc(O)cc2)c(I)c1)N1CCCCC1 [MLAE-041, 3-(4-(4-hydroxyphenoxy)-3,5-diiodophenyl)-1-(piperidin-1-yl)propan-1-one]
IC50 [1]: 2.4 µM

O=C(Cc1cc(I)c(Oc2ccc(O)c(I)c2)c(I)c1)NCCc1ccccc1 [MLAE-029-3, 2-(4-(4-hydroxy-3-iodophenoxy)-3,5-diiodophenyl)-N-phenethylacetamide]
IC50 [1]: > 50 µM

O=C(Cc1cc(I)c(Oc2ccc(O)c(I)c2)c(I)c1)NC1CCCCC1 [MLAE-029-2, N-Cyclohexyl-2-(4-(4-hydroxy-3-iodophenoxy)-3,5-diiodophenyl)acetamide]
IC50 [1]: > 50 µM

O=C(CCc1cc(I)c(Oc2ccc(O)c(C(=O)NCc3ccccc3)c2)c(I)c1)NCCO [MLAF-008, N-Benzyl-2-hydroxy-5-(4-(3-((2-hydroxyethyl)amino)-3-oxopropyl)-2,6-diiodophenoxy)benzamide]
IC50 [1]: 0.4 µM

NC[C@@H](N)Cc1cc(I)c(Oc2ccc(O)cc2)c(I)c1 [SWUA_017, (S)-4-(4-(2,3-diaminopropyl)-2,6-diiodophenoxy)phenol]
IC50 [1]: 2.5 µM

COc1ccc(Oc2c(I)cc(CCC(=O)NS(C)(=O)=O)cc2I)cc1 [MLAE-036, 3-(3,5-diiodo-4-(4-methoxyphenoxy)phenyl)-N-(methylsulfonyl)propanamide]
IC50 [1]: > 50 µM

COCCNC(=O)CCc1cc(I)c(Oc2ccc(O)cc2)c(I)c1 [MLAE-051-1, 3-(4-(4-Hydroxyphenoxy)-3,5-diiodophenyl)-N-(2-methoxyethyl)propanamide]
IC50 [1]: 4.9 µM

CCNC(=O)Cc1cc(I)c(Oc2ccc(O)cc2)c(I)c1 [MLAG-066-3, N-ethyl-2-(4-(4-hydroxyphenoxy)-3,5-diiodophenyl)acetamide]
IC50 [1]: 6.6 µM

O=C1CN(C(=O)Cc2cc(I)c(Oc3ccc(O)cc3)c(I)c2)CCN1 [MLAE-048, 4-(2-(4-(4-Hydroxyphenoxy)-3,5-diiodophenyl)acetyl)piperazin-2-one]
IC50 [1]: 9.1 µM

COc1ccc(Oc2c(I)cc(CC(=O)NS(C)(=O)=O)cc2I)cc1 [MLAE-046, 2-(3,5-Diiodo-4-(4-methoxyphenoxy)phenyl)-N-(methylsulfonyl)acetamide]
IC50 [1]: > 50 µM

CS(=O)(=O)NC(=O)CCc1cc(I)c(Oc2ccc(O)c(C(=O)Nc3ccccc3)c2)c(I)c1 [MLAF-012, 5-(2,6-diiodo-4-(3-(methylsulfonamido)-3-oxopropyl)phenoxy)-2-hydroxy-N-phenylbenzamide]
IC50 [1]: > 50 µM

O=S(=O)(N[C@H](CO)Cc1cc(I)c(Oc2ccc(O)cc2)c(I)c1)c1ccc(O)cc1 [MLAE-060, (S)-4-Hydroxy-N-(1-hydroxy-3-(4-(4-hydroxyphenoxy)-3,5-diiodophenyl)propan-2-yl)benzenesulfonamide]
IC50 [1]: 32 µM

NCc1cc(I)c(Oc2ccc(O)cc2)c(I)c1 [MLAG-082, 4-(4-(aminomethyl)-2,6-diiodophenoxy)phenol]
IC50 [1]: 1.6 µM

O=C(CCc1cc(I)c(Oc2ccc(O)c(C(=O)Nc3ccccc3)c2)c(I)c1)NCCO [MLAF-007, 2-Hydroxy-5-(4-(3-((2-hydroxyethyl)amino)-3-oxopropyl)-2,6-diiodophenoxy)-N-phenylbenzamide]
IC50 [1]: 0.4 µM
